According to patent US12590062B2, “PD-1/PD-L1 inhibitors” (Gilead Sciences, Inc., priority 2017, dated 2026):

Legend:
PD-L1 = target: T1, PD-L1 (Homo sapiens, UniProt Q9NZQ7); experiment: PD-L1/PD-L1 dimerization biochemical protein-protein interaction assay (ALPHA); format: binding; conditions: compound-induced PD-L1 dimerization, head prints '1 nM' (0.5 nM His-tagged PD-L1 and 0.5 nM FLAG-tagged PD-L1), read-out: AC50 PDL1 Dimer Alpha 1 nM
T1 construct: determine if they can specifically dimerize the extracellular domains of PD-L1
T1 sequence (Q9NZQ7 19-238 limits assumed): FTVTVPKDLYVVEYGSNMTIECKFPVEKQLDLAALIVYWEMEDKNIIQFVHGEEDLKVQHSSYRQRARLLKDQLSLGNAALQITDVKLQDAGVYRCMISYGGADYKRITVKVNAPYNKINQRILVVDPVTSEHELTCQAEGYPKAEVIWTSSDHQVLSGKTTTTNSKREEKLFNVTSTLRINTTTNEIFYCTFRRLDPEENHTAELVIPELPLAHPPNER
T1 sequence (Q9NZQ7 19-238 limits assumed): as above
Summary of the method: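 After 2 h at 25 °C with compound, His- and FLAG-tagged PD-L1 ECDs (each 0.5 nM final; 25 mM Hepes pH 7.4, 150 mM NaCl) were detected by sequential anti-His acceptor and anti-FLAG donor bead incubations. Dose-response curves fitted to four-parameter equation for AC50.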

PD-1/PD-L1 interaction = target: T2, PD-1/PD-L1 interaction (Homo sapiens, UniProt Q9NZQ7); experiment: PD-1/PD-L1 NFAT reporter co-culture assay; format: cell-based; conditions: Jurkat PD-1 NFAT-luciferase cells co-cultured with aAPC-PD-L1 CHO cells, 6 hrs at 37° C.; read-out: EC50 NFAT Luciferase
T2 construct: expressed in transfected cells; host or cells: CHO cells (aAPC-PD-L1) co-cultured with Jurkat cells overexpressing PD-1 and an NFAT-luciferase reporter
T2 sequence (Q9NZQ7 19-290): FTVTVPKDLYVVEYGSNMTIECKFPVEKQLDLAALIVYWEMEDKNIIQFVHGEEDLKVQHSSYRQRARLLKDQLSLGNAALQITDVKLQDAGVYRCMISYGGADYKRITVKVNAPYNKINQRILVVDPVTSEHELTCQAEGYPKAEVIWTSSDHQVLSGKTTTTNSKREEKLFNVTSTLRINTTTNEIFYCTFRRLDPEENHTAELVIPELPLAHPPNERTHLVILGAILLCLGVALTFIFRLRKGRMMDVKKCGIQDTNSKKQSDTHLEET
Summary of the method: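 Restoration of TCR-driven NFAT luciferase signal: 6 h, 37 °C co-culture of PD-1 Jurkat reporter cells (pre-mixed with compound) on overnight-seeded PD-L1/anti-CD3 CHO monolayer. ONE-Glo luminescence; dose-response fitted to four-parameter equation for EC50.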

PD-1/PD-L1 = PD-1/PD-L1 (Homo sapiens, UniProt Q9NZQ7); experiment: PD-1/PD-L1 biochemical protein-protein interaction assay (ALPHA); format: binding; conditions: 0.3 nM His tagged PD-L1, 2.5 nM biotinylated Fc-PD-1, 60 minutes at 25° C., read-out: IC50 PD-L1-PD-1 Alpha IC50-mono PD-L1-fcP-D1
Chain of PD-1/PD-L1 (Q9NZQ7 19-238 limits assumed): as the sequence (Q9NZQ7 19-238 limits assumed) above
Summary of the method: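 Compound blockade of the PD-1/PD-L1 extracellular-domain interaction measured as reduced ALPHA signal after 60 min at 25 °C, pH 7.4 Hepes buffer with EDTA, Tween 20 and BSA. Final proteins: His-tagged PD-L1 0.3 nM, biotinylated Fc-PD-1 2.5 nM; four-parameter curve fit gives IC50.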

Row | Compound | AC50 (PD-L1) | EC50 (PD-1/PD-L1 interaction) | IC50 (PD-1/PD-L1)
1 | Cc1c(COc2cc(OCc3cncc(C#N)c3)c(CNC[C@@H](O)CC(=O)O)cc2Cl)cccc1-c1cccc(-c2cn3cc(CNC[C@@H](O)CC(=O)O)ccc3n2)c1C [Example 394, (S)-4-(((2-(3′-((4-((((S)-3-carboxy-2-hydroxypropyl)amino)methyl)-2-chloro-5-((5-cyanopyridin-3-yl)methoxy)phenoxy)methyl)-2,2′-dimethyl-[1,1′-biphenyl]-3-yl)imidazo[1,2-a]pyridin-6-yl)methyl)amino)-3-hydroxybutanoic acid] | 130 nM | 435 nM | 0.102 nM
2 | COc1cc(-c2cccc(-c3cccc(COc4nc(OC)c(CN5CC6(C5)CN(C(C)=O)C6)cc4Br)c3Cl)c2Cl)ccc1CN1CC2(C1)CN(C(C)=O)C2 [Example 425] | 226 nM | 544 nM | 0.755 nM
3 | COc1nc(-c2cccc(-c3cccc(OCc4ccc(CNC[C@@H]5CCC(=O)N5)cc4)c3Cl)c2Cl)ccc1CNC[C@@H]1CCC(=O)N1 [Example 426] | 408 nM | 634 nM | 0.397 nM
4 | COc1nc(C(=O)Nc2cccc(-c3cccc(-c4ccc(CNC[C@@H]5CCC(=O)N5)c(OC)n4)c3Cl)c2Cl)ccc1CNC[C@@H]1CCC(=O)N1 [Example 429] | 240 nM | 680 nM | 0.14 nM
5 | COc1nc(-c2cccc(-c3cccc(NC(=O)c4ccc(C5=NCCN5)cn4)c3C)c2Cl)ccc1C1=NCCN1 [Example 434] | 106 nM | 332 nM | 0.077 nM
6 | COc1nc(OCc2cccc(-c3cccc(-c4ccc5c(c4)C[C@@H](N)C5)c3Cl)c2Cl)c(Br)cc1CN[C@@](C)(CO)C(=O)O [Example 435] | 86.2 nM | 316 nM | 0.234 nM
7 | CNC(=O)COc1cc(-c2cccc(-c3cccc(COc4cc(OCc5cncc(C#N)c5)c(CNC[C@@H](O)CC(=O)O)cc4Cl)c3C)c2C)ccc1C1=NCCN1 [Example 436] | 77.8 nM | 544 nM | 0.064 nM
8 | Cc1c(COc2cc(OCc3cncc(C#N)c3)c(CNC[C@@H](O)CC(=O)O)cc2Cl)cccc1-c1cccc(-c2ccc3c(CNC[C@H]4CCC(=O)N4)ccnc3c2)c1C [Example 437] | 477 nM | 476 nM | 1.61 nM
9 | Cc1c(COc2cc(OCc3cncc(C#N)c3)c(CNC[C@@H](O)CC(=O)O)cc2Cl)cccc1-c1cccc(-c2ccc3c(c2)CC(N2CC(C)(O)C2)C3)c1C (stereo partly drawn) [Example 442] | 328 nM | 930 nM | 0.697 nM
10 | Cc1c(COc2cc(OCc3cncc(C#N)c3)c(CN[C@@](C)(CO)C(=O)O)cc2Cl)cccc1-c1cccc(-c2ccc(O[C@@H]3CCNC[C@H]3F)cc2)c1Cl [Example 445] | 266 nM | 1490 nM | 0.719 nM
11 | Cc1c(COc2cc(OCc3cncc(C#N)c3)c(CNC[C@@H](O)CC(=O)O)cc2Cl)cccc1-c1cccc(-c2ccc3c(c2)CC(=O)N3CCN(C)C)c1C [Example 448] | 903 nM | 1010 nM | 0.618 nM
12 | Cc1c(COc2cc(OCc3cncc(C#N)c3)c(CNC[C@@H](O)CC(=O)O)cc2Cl)cccc1-c1cccc(-n2cc(CN3CCCC3)nn2)c1C [Example 449] | 1490 nM | 2570 nM | 0.653 nM
13 | Cc1c(COc2cc(OCc3cncc(C#N)c3)c(CNC(C)(CO)C(=O)O)cc2Cl)cccc1-c1cccc(-c2ccc(CN3CC4(CNC4)C3)cc2)c1C (stereo not drawn) [Example 451] | 105 nM | 472 nM | 0.104 nM
14 | Cc1c(COc2cc(OCc3cncc(C#N)c3)c(CN[C@@](C)(CO)C(=O)O)cc2Cl)cccc1-c1cccc(-c2nnc(CCN3CC[C@@H](O)C3)o2)c1C [Example 453] | 326 nM | 895 nM | 0.111 nM

Results, then the compound that gave them:

Row | AC50 (PD-L1) | EC50 (PD-1/PD-L1 interaction) | IC50 (PD-1/PD-L1) | Compound
15 | 84 nM | 118 nM | 0.064 nM | Cc1c(COc2cc(OCc3cncc(C#N)c3)c(CNC[C@@H](O)CC(=O)O)cc2Cl)cccc1-c1cccc(-c2nc3c(Cl)cc(CNC[C@@H](O)CC(=O)O)cn3n2)c1C [Example 393, (S)-4-(((2-(3′-((4-((((S)-3-carboxy-2-hydroxypropyl)amino)methyl)-2-chloro-5-((5-cyanopyridin-3-yl)methoxy)phenoxy)methyl)-2,2′-dimethyl-[1,1′-biphenyl]-3-yl)-8-chloro-[1,2,4]triazolo[1,5-a]pyridin-6-yl)methyl)amino)-3-hydroxybutanoic acid]
16 | 89.6 nM | 151 nM | 0.217 nM | Cc1c(COc2cc(OCc3cncc(C#N)c3)c(CNC[C@@H](O)CC(=O)O)cc2Cl)cccc1-c1cccc(-c2nc3c(C)c(CNC[C@@H](O)CC(=O)O)ccc3s2)c1C [Example 395, (S)-4-(((2-(3′-((4-((((S)-3-carboxy-2-hydroxypropyl)amino)methyl)-2-chloro-5-((5-cyanopyridin-3-yl)methoxy)phenoxy)methyl)-2,2′-dimethyl-[1,1′-biphenyl]-3-yl)-4-methylbenzo[d]thiazol-5-yl)methyl)amino)-3-hydroxybutanoic acid]
17 | 37.9 nM | 105 nM | 0.064 nM | Cc1c(-c2nc3ccc(CNC[C@@H](O)CC(=O)O)cc3s2)cccc1-c1cccc2c1CC[C@@H]2Oc1nc(OCc2cncc(C#N)c2)c(CNC[C@@H](O)CC(=O)O)cc1Cl [Example 396, (S)-4-(((2-(3-((S)-1-((5-((((S)-3-carboxy-2-hydroxypropyl)amino)methyl)-3-chloro-6-((5-cyanopyridin-3-yl)methoxy)pyridin-2-yl)oxy)-2,3-dihydro-1H-inden-4-yl)-2-methylphenyl)benzo[d]thiazol-6-yl)methyl)amino)-3-hydroxybutanoic acid]
18 | 525 nM | 282 nM | 1.37 nM | COc1nc(Oc2cccc(-c3cccc(-c4ccc(CNC[C@@H]5CCC(=O)N5)c(OC)n4)c3Cl)c2Cl)ccc1CNC[C@@H]1CCC(=O)N1 [Example 428]
19 | 290 nM | 268 nM | 2.06 nM | COc1nc(-c2cccc(-c3cccc(COc4nc(OC)c(CN5CC6(CNC(=O)C6)C5)cc4Cl)c3Cl)c2Cl)ccc1CNC[C@@H]1CCC(=O)N1 [Example 430]
20 | 249 nM | 275 nM | 1.32 nM | COc1nc(OCc2cccc(-c3cccc(-c4ccc(CNC[C@@H]5CCC(=O)N5)cc4)c3Cl)c2Cl)c(Br)cc1CNC[C@@H]1CCC(=O)N1 [Example 431]
21 | 539 nM | 289 nM | 1.52 nM | COc1nc(-c2cccc(-c3cccc(COc4nc(OC)c(CNC[C@H]5CCC(=O)N5)cc4Cl)c3Cl)c2Cl)ccc1CN1CC2(CCC(=O)N2)C1 [Example 432]
22 | 167 nM | 290 nM | 0.08 nM | Cc1c(COc2cc(OCc3cncc(C#N)c3)c(CNC[C@@H](O)CC(=O)O)cc2Cl)cccc1-c1cccc(-c2ccc(CNC[C@@H](O)CC(=O)O)c(OCC#N)c2)c1C [Example 433]
23 | 168 nM | 222 nM | 0.476 nM | Cc1c(COc2cc(OCc3cncc(C#N)c3)c(CNC[C@@H](O)CC(=O)O)cc2Cl)cccc1-c1cccc(Nc2nccc3cc(CNCCO)cnc23)c1C [Example 438]
24 | 154 nM | 270 nM | 0.376 nM | Cc1c(COc2cc(OCc3cncc(C#N)c3)c(CNC[C@@H](O)CC(=O)O)cc2Cl)cccc1-c1cccc(-c2ccc3c(c2)CC(NCC2CCC(=O)N2)C3)c1C (stereo partly drawn) [Example 439]
25 | 113 nM | 251 nM | 0.115 nM | COc1ccc(-c2cccc(-c3cccc(COc4cc(OCc5cncc(C#N)c5)c(CN[C@@](C)(CO)C(=O)O)cc4Cl)c3C)c2C)cc1CN [Example 440]
26 | 301 nM | 260 nM | 0.212 nM | Cc1c(COc2cc(OCc3cncc(C#N)c3)c(CN[C@@](C)(CO)C(=O)O)cc2Cl)cccc1-c1cccc(-c2ccc(OCCN3CCC4(CC3)CC(=O)N4)cc2)c1C [Example 441]
27 | 154 nM | 276 nM | 0.064 nM | Cc1c(COc2cc(OCc3cncc(C#N)c3)c(CNC(C)(CO)C(=O)O)cc2Cl)cccc1-c1cccc(-c2ccc(CN3CCC4(CC3)CNC4=O)cc2)c1C (stereo not drawn) [Example 443]
28 | 133 nM | 296 nM | 0.064 nM | Cc1c(COc2cc(OCc3cncc(C#N)c3)c(CNC(C)(CO)C(=O)O)cc2Cl)cccc1-c1cccc(-c2ccc(CN3CCC4(CNC(=O)C4)C3)cc2)c1C (stereo not drawn) [Example 444]
29 | 458 nM | 315 nM | 0.453 nM | Cc1c(COc2cc(OCc3cncc(C#N)c3)c(CNC[C@@H](O)CC(=O)O)cc2Cl)cc(F)cc1-c1cccc(-c2ccc(OCCN3CC[C@@H](O)C3)cc2)c1C [Example 446]
30 | 110 nM | 277 nM | 1.56 nM | Cc1c(COc2cc(OCc3cncc(C#N)c3)c(CNCCO)cc2Cl)cccc1-c1cccc(-c2ccc(CN(C)C)cc2)c1Br [Example 450]
31 | 144 nM | 253 nM | 0.076 nM | Cc1c(COc2cc(OCc3cncc(C#N)c3)c(CNC[C@@H](O)CC(=O)O)cc2Cl)cccc1-c1cccc(-c2cnc3c(CNC[C@@H](O)CC(=O)O)cccc3c2)c1C [Example 452]
